Legend:
[1] = target: Laminin, from human placenta (human); assay: SPR; Biacore 3000, 25°C; FN, mucin or laminin covalently immobilised on a CM5 chip by amine coupling, adhesin domain flowed over; dissociation constants in the equilibrium state
N-Als3p [2] = target: T1, N-Als3p (Candida albicans, UniProt Q59L12); assay: CFG glycan array v5.[…]; format: binding; conditions: glycan printed on glass slide, N-Als3p NT-647 labelled
T1 construct: gene ALS3; N-terminal part (Ig-like adhesin domain); recombinant, purified from S. cerevisiae or E. coli as previously described

[3] = target: Mucin, partially purified from porcine stomach (porcine); assay: SPR; Biacore 3000, 25°C; FN, mucin or laminin covalently immobilised on a CM5 chip by amine coupling, adhesin domain flowed over; dissociation constants in the equilibrium state
N-Als3p [4] = target: T1, N-Als3p; assay: SPR, immobilised BSA-GlcNAc; format: binding; conditions: GlcNAc shown as BSA glycoconjugate on CM5 chip, 25°C
N-Epa1p = target: T2, N-Epa1p (Nakaseomyces glabratus, UniProt Q6VBJ0); assay: SPR inhibition of binding to immobilised mucin; conditions: competition with porcine stomach mucin, lactose 6 µM to 1.5 mM, 25°C
T2 construct: gene EPA1; N-terminal PA14-like lectin domain; recombinant, purified from S. cerevisiae or E. coli as previously described
T2 sequence (Q6VBJ0 entry or part of it): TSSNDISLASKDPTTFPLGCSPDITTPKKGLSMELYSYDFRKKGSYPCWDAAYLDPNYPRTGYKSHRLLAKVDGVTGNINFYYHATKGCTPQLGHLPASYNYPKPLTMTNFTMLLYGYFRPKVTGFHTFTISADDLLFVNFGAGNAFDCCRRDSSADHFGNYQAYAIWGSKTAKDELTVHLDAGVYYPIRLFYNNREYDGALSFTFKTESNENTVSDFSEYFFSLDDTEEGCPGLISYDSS

Fibronectin (FN) = Fibronectin (FN) (UniProt P02751 32-2477); assay: SPR; Biacore 3000, 25°C; FN, mucin or laminin covalently immobilised on a CM5 chip by amine coupling, adhesin domain flowed over; dissociation constants in the equilibrium state; conditions: both partners purified
Sequence of Fibronectin (FN) (P02751 32-2477): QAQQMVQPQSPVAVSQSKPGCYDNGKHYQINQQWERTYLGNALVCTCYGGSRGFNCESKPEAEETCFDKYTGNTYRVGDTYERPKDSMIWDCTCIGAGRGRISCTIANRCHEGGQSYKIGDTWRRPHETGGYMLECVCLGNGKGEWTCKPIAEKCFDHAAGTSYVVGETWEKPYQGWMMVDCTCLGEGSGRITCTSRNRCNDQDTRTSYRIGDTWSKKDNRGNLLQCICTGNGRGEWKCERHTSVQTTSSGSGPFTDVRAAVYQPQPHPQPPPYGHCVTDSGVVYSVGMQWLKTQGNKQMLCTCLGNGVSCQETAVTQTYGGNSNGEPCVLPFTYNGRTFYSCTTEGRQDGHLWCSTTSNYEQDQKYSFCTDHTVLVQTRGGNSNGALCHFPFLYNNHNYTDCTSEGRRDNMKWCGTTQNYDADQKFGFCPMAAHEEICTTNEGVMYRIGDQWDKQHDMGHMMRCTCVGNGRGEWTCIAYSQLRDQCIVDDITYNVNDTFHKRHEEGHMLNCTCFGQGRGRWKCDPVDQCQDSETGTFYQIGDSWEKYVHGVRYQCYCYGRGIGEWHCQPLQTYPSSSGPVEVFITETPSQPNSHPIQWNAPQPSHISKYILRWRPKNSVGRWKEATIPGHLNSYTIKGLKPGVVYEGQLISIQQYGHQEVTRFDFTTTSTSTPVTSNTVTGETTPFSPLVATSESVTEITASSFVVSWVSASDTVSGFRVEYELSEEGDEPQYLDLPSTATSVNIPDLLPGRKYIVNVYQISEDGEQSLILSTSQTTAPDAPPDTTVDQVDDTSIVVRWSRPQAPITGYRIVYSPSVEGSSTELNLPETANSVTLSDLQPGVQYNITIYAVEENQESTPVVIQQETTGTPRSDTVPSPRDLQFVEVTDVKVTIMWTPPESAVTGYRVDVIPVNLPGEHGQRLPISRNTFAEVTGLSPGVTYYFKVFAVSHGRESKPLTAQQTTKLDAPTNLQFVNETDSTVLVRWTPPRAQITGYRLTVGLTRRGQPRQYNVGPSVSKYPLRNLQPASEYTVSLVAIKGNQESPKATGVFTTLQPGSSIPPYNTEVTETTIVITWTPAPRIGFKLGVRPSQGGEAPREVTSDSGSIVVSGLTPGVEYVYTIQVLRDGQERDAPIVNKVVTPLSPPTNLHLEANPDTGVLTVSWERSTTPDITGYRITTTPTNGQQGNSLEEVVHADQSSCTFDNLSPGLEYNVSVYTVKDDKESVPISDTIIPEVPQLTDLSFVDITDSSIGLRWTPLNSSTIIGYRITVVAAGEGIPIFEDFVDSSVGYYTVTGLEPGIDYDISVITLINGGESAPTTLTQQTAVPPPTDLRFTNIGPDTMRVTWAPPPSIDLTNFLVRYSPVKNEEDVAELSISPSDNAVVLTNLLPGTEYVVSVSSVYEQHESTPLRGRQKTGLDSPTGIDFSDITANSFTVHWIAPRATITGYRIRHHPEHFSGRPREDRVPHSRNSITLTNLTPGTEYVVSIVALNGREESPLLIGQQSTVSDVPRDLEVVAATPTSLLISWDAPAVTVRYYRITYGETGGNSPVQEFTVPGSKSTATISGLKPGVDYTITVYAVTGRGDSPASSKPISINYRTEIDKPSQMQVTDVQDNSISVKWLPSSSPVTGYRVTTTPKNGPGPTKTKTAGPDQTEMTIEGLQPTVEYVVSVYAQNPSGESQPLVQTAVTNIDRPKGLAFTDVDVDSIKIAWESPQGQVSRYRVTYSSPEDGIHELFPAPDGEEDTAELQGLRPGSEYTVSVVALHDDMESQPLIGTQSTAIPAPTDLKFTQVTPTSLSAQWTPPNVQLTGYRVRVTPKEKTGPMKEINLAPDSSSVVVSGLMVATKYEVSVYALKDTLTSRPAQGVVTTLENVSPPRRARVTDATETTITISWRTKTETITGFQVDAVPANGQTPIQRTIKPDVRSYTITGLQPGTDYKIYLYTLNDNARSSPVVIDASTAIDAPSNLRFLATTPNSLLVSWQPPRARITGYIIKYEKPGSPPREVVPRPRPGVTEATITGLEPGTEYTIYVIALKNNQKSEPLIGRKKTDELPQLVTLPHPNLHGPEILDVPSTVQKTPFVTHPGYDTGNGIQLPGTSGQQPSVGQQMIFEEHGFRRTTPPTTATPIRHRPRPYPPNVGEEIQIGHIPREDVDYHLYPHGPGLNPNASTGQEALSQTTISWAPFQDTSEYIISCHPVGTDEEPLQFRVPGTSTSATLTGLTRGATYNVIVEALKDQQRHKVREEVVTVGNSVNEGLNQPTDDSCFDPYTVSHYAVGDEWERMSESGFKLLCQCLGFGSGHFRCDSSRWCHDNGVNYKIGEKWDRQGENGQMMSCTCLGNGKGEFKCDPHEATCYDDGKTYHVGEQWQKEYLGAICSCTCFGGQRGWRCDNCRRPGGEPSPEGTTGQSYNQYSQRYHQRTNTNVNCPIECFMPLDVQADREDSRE

Molecule: N-terminal part of Als3p from Candida albicans (N-Als3p) (domain or fragment)
- Kd [1]: 410 µM

Molecule: CC(=O)N[C@H]1C(O)O[C@H](CO)[C@H](O)[C@@H]1O[C@@H]1O[C@H](CO)[C@H](O)[C@H](O)[C@H]1O (some centres unmarked) [T antigen]
- CFG glycan array v5.0 (N-Als3p [2]; 200 and 20 µg/ml): N-Als3p bound also to the T antigen

Molecule: N-terminal domain of Epa1p from Candida glabrata (N-Epa1p) (domain or fragment)
- Kd [3]: 4.67 µM

Molecule: CC(=O)N[C@H]1C(O)O[C@H](CO)[C@@H](O)[C@@H]1O (some centres unmarked) [GlcNAc]
- SPR, immobilised BSA-GlcNAc (N-Als3p [4]): SPR experiments confirmed the binding of N-Als3p to GlcNAc

Molecule: CC(=O)N[C@H]1[C@H](O[C@H]2[C@@H](O)[C@@H](CO)OC(O)[C@@H]2O)O[C@H](CO)[C@H](O)[C@@H]1O[C@@H]1O[C@H](CO)[C@H](O)[C@H](O)[C@H]1O[C@@H]1O[C@@H](C)[C@@H](O)[C@@H](O)[C@@H]1O (some centres unmarked) [Fucα-1,2-Galβ-1,3-GalNAcβ-1,3-Gal]
- CFG glycan array v5.0 (N-Als3p [2]; 200 µg/ml): GlcNAcβ-1,3GalNAc and Fucα-1,2-Galβ-1,3-GalNAcβ-1,3-Gal were also recognized

Molecule: CC(=O)N[C@H]1[C@H](O[C@H]2[C@@H](O)[C@@H](CO)OC(O)[C@@H]2NC(C)=O)O[C@H](CO)[C@@H](O)[C@@H]1O (some centres unmarked) [GlcNAcβ-1,3GalNAc]
- CFG glycan array v5.0 (N-Als3p [2]; 200 µg/ml): GlcNAcβ-1,3GalNAc and Fucα-1,2-Galβ-1,3-GalNAcβ-1,3-Gal were also recognized

Molecule: OC[C@H]1O[C@@H](O[C@H]2[C@H](O)[C@@H](O)C(O)O[C@@H]2CO)[C@H](O)[C@@H](O)[C@H]1O (some centres unmarked) [lactose]
- SPR inhibition of binding to immobilised mucin (N-Epa1p): binding of N-Epa1p to mucin could be blocked by lactose in a concentration-dependent manner

B1: N-terminal part of Als3p from Candida albicans (N-Als3p) (domain or fragment)
chain: KTITGVFNSFNSLTWSNAATYNYKGPGTPTWNAVLGWSLDGTSASPGDTFTLNMPCVFKFTTSQTSVDLTAHGVKYATCQFQAGEEFMTFSTLTCTVSNTLTPSIKALGTVTLPLAFNVGGTGSSVDLEDSKCFTAGTNTVTFNDGGKKISINVDFERSNVDPKGYLTDSRVIPSLNKVSTLFVAPQCANGYTSGTMGFANTYGDVQIDCSNIHVGITKGLNDWNYPVSSESFSYTKTCSSNGIFITYKNVPAGYRPFVDAYISATDVNSYTLSYANEYTCAGGYWQRAPFTLRWTGYRNSDAGSNGIVIVATTRTVTDSTTAVTTLPFDPNRDKTKTIEILKPIPTTTITTSYVGVTTSYSTKTAPIGETATVIVDIPYHTTTTVTSKWTGTITSTTTHTNPTDSIDTVIVQVP
modifications: Secreted from S. cerevisiae, C-terminal His tag omitted. The strain of the allele is not given; the SC5314 reference entry is used. Limits 18-432 are printed in Text S1.
- Kd (Fibronectin (FN)): 10 ± 1 µM
